Test system: IMQ-induced psoriasis in mice
Assay: IMQ-induced psoriasis model
Format: in vivo, mouse
Description: FIG. 11A-11G. […] Representative images of the same mouse shown over time. […] Mice were treated twice daily with IMQ±dexamethasone (DEX, 200 ug/mouse) 1 h prior to IMQ treatment. […] (FIG. 11G) NK cell (CD45+DX5+CD11b-CD3-CD19-) infiltration into lesional or non-lesional adjacent skin was determined by flow cytometry (6 day timepoint) for IMQ-treated WT and chemerin KO mice. mean±SEM, n=4 mice per genotype, ***p<0.005 by 2-tailed t-test; **p<0.01 by 2-tailed t-test; *p<0.05 by 1-tailed t-test.
FIG. 13A-13D. […] Fold change with respect to day 0 measurements are shown. […] For A-C, n=3 untreated, n=5 IMQ-treated mice of each genotype, mean±SEM, *p<0.05 by 2-tailed t-test.
FIG. 15A-15D. […] IC50 values were determined based on 6-point dose-response curves for each compound. (FIG. 15A) α-NETA. […] (FIG. 15A-15C) mean±SEM, n=3-18 independent experiments. […] 0.2 ml each compound (in 10% captisol) or vehicle control was administered by oral gavage beginning one day prior to psoriasis induction. Back skin thickness was measured daily and normalized to day 0. mean±SEM, n=10 mice for vehicle and α-NETA groups pooled from two independent trials; n=3 mice for (27) and (6) from one trial.

C[N+](C)(C)CCC(=O)c1cccc2ccccc12.[I-] [α-NETA, 2-(α-naphthoyl) ethyltrimethylammonium iodide]
back skin thickening (10 mg/kg s.c., 24 h timepoint): significantly suppressed
back skin acanthosis (30 mg/kg p.o. daily, 7 days, vs vehicle control): significantly diminished
clinical features of experimental psoriasis (oral gavage in 10% captisol, FIG. 15D): suppressed

From patent US11730705B2, “Small molecule CMKLR1 antagonists in inflammatory disease” (The Board of Trustees of the Leland Stanford Junior …, priority 2019, dated 2023)
